# Experimental data published in US10844032B2, “Substituted benzofuran, benzothiophene and indole Mcl-1 inhibitors” (Vanderbilt University, priority 2012, dated 2020).
# Biological target: recombinant Mcl-1 (residues 172-327) (Homo sapiens (Human), UniProt Q07820)
# Assay: Bak peptide fluorescence polarization anisotropy competition assay, Mcl-1
# Format: binding
# Settings: Table 2, Ki range; FITC-Bak peptide 10 nM, Mcl-1 14 nM; read-out: Ki for inhibition of Mcl-1
# Sequence of recombinant Mcl-1 (residues 172-327) (Q07820 172-327): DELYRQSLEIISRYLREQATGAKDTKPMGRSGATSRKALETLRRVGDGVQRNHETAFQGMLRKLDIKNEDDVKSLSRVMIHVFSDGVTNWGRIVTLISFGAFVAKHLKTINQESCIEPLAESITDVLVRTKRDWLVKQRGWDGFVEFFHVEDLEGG
row,SMILES,Ki [µM]
1,"Cc1cc(OCCCc2c(C(=O)NS(=O)(=O)CCNC(=O)c3cccn3C)[nH]c3cc(Cl)ccc23)cc(C)c1Cl [Example 233, 6-chloro-3-(3-(4-chloro-3,5-dimethylphenoxy)propyl)-N-((2-(1-methyl-1H-pyrrole-2-carboxamido)ethyl)sulfonyl)-1H-indole-2-carboxamide]",≤ 0.1
2,"Cc1cc(OCCCc2c(C(=O)NS(=O)(=O)CCNC(=O)c3cc(C)n(-c4ccc(F)cc4)c3C)[nH]c3ccccc23)cc(C)c1Cl [Example 279, 3-(3-(4-chloro-3,5-dimethylphenoxy)propyl)-N-((2-(1-(4-fluorophenyl)-2,5-dimethyl-1H-pyrrole-3-carboxamido)ethyl)sulfonyl)-1H-indole-2-carboxamide]",≤ 0.1
3,"Cc1cc(OCCCc2c(C(=O)NS(=O)(=O)c3ccccc3)[nH]c3c(-c4cnccc4C(F)(F)F)cccc23)cc(C)c1Cl [Example 103, 3-(3-(4-chloro-3,5-dimethylphenoxy)propyl)-N-(phenylsulfonyl)-7-(4-(trifluoromethyl)pyridin-3-yl)-1H-indole-2-carboxamide]",≤ 0.1
4,"COc1nccc(C)c1-c1cccc2c(CCCOc3cc(C)c(Cl)c(C)c3)c(C(=O)NS(=O)(=O)c3ccccc3)[nH]c12 [Example 301, 3-(3-(4-chloro-3,5-dimethylphenoxy)propyl)-7-(2-methoxy-4-methylpyridin-3-yl)-N-(phenylsulfonyl)-1H-indole-2-carboxamide]",≤ 0.1
5,"Cc1cc(OCCCc2c(C(=O)NS(=O)(=O)CCNC(=O)c3cccc(C(F)(F)F)c3)[nH]c3cc(Cl)ccc23)cc(C)c1Cl [Example 255, 6-chloro-3-(3-(4-chloro-3,5-dimethylphenoxy)propyl)-N-((2-(3-(trifluoromethyl)benzamido)ethyl)sulfonyl)-1H-indole-2-carboxamide]",≤ 0.1
6,"Cc1cc(OCCCc2c(C(=O)NS(=O)(=O)c3ccccc3)[nH]c3c(-c4cccn4C)cccc23)cc(C)c1Cl [Example 101, 3-(3-(4-chloro-3,5-dimethylphenoxy)propyl)-7-(1-methyl-1H-pyrrol-2-yl)-N-(phenylsulfonyl)-1H-indole-2-carboxamide]",≤ 0.1

# Same assay, conditions: read-out: Ki for inhibition of Mcl-1
row,Ki [µM],SMILES
1,1 to 9.99,"Cc1cc(OCCCc2c(C(=O)NS(=O)(=O)c3ccc4ccccc4c3)oc3ccccc23)cc(C)c1Cl [Example 27, 3-(3-(4-chloro-3,5-dimethylphenoxy)propyl)-N-(naphthalen-2-ylsulfonyl)benzofuran-2-carboxamide]"
2,0.501 to 0.999,"Cc1cc(OCCCc2c(C(=O)NS(=O)(=O)CCNC(=O)c3nccn3Cc3ccccc3)[nH]c3ccccc23)cc(C)c1Cl [Example 173, N-((2-(1-benzyl-1H-imidazole-2-carboxamido)ethyl)sulfonyl)-3-(3-(4-chloro-3,5-dimethylphenoxy)propyl)-1H-indole-2-carboxamide]"
3,0.101 to 0.299,"Cc1cc(OCCCc2c(C(=O)NS(=O)(=O)CCNC(=O)c3ccc4cc[nH]c4c3)[nH]c3ccccc23)cc(C)c1Cl [Example 176, N-((2-(1H-indole-6-carboxamido)ethyl)sulfonyl)-3-(3-(4-chloro-3,5-dimethylphenoxy)propyl)-1H-indole-2-carboxamide]"
4,0.101 to 0.299,"Cc1cc(OCCCc2c(C(=O)NS(=O)(=O)c3cccc(C(=O)NC4CCOCC4)c3)[nH]c3ccccc23)cc(C)c1Cl [Example 202, 3-(3-(4-chloro-3,5-dimethylphenoxy)propyl)-N-((3-((tetrahydro-2H-pyran-4-yl)carbamoyl)phenyl)sulfonyl)-1H-indole-2-carboxamide]"
5,0.101 to 0.299,"Cc1cccc(S(=O)(=O)NC(=O)c2[nH]c3cc(Cl)ccc3c2CCCOc2cc(C)c(Cl)c(C)c2)c1 [Example 217, 6-chloro-3-(3-(4-chloro-3,5-dimethylphenoxy)propyl)-N-(m-tolylsulfonyl)-1H-indole-2-carboxamide]"
6,1 to 9.99,"Cc1cc(OCCCc2c(C(=O)NS(=O)(=O)CCNC(=O)c3ccncc3)[nH]c3ccccc23)cc(C)c1Cl [Example 153, 3-(3-(4-chloro-3,5-dimethylphenoxy)propyl)-N-((2-(isonicotinamido)ethyl)sulfonyl)-1H-indole-2-carboxamide]"
7,0.101 to 0.299,"COCc1nn(C)c(C)c1-c1cccc2c(CCCOc3cc(C)c(Cl)c(C)c3)c(C(=O)NS(=O)(=O)c3ccccc3)n(Cc3cccnc3)c12 [Example 128, 3-(3-(4-Chloro-3,5-dimethylphenoxy)propyl)-7-(3-(methoxymethyl)-1,5-dimethyl-1H-pyrazol-4-yl)-N-(phenylsulfonyl)-1-(pyridin-3-ylmethyl)-1H-indole-2-carboxamide]"
8,0.301 to 0.5,"Cc1cc(OCCCc2c(C(=O)NS(=O)(=O)CCNC(=O)c3ccc4c(ccn4C)c3)[nH]c3ccccc23)cc(C)c1Cl [Example 196, 3-(3-(4-chloro-3,5-dimethylphenoxy)propyl)-N-((2-(1-methyl-1H-indole-5-carboxamido)ethyl)sulfonyl)-1H-indole-2-carboxamide]"
9,0.101 to 0.299,"Cc1cc(OCCCc2c(C(=O)NS(=O)(=O)CCNC(=O)c3ccc4[nH]ccc4c3)[nH]c3ccccc23)cc(C)c1Cl [Example 178, N-((2-(1H-indole-5-carboxamido)ethyl)sulfonyl)-3-(3-(4-chloro-3,5-dimethylphenoxy)propyl)-1H-indole-2-carboxamide]"
10,0.101 to 0.299,"Cc1cc(OCCCc2c(C(=O)NS(=O)(=O)c3ccccc3)[nH]c3c(-c4cccs4)cccc23)cc(C)c1Cl [Example 95, 3-(3-(4-chloro-3,5-dimethylphenoxy)propyl)-N-(phenylsulfonyl)-7-(thiophen-2-yl)-1H-indole-2-carboxamide]"
11,0.301 to 0.5,"Cc1cc(OCCCc2c(C(=O)NS(=O)(=O)c3ccccc3)n(C)c3cc(Cl)ccc23)cc(C)c1Cl [Example 269, 6-chloro-3-(3-(4-chloro-3,5-dimethylphenoxy)propyl)-1-methyl-N-(phenylsulfonyl)-1H-indole-2-carboxamide]"
12,0.501 to 0.999,"Cc1cc(OCCCc2c(C(=O)NS(C)(=O)=O)[nH]c3ccccc23)cc(C)c1Cl [Example 29, 3-(3-(4-chloro-3,5-dimethylphenoxy)propyl)-N-(methylsulfonyl)-1H-indole-2-carboxamide]"

# Further lines, the molecule ahead of its results:
row,SMILES,Ki [µM]
1,"CCc1cc(OCCCc2c(C(=O)NS(C)(=O)=O)[nH]c3ccccc23)ccc1Cl [Example 44, 3-(3-(4-chloro-3-ethylphenoxy)propyl)-N-(methylsulfonyl)-1H-indole-2-carboxamide]",1 to 9.99
2,"Cc1cc(OCCCc2c(C(=O)NS(=O)(=O)CC3CCN(C(=O)c4cccn4C)CC3)[nH]c3ccccc23)cc(C)c1Cl [Example 211, 3-(3-(4-chloro-3,5-dimethylphenoxy)propyl)-N-(((1-(1-methyl-1H-pyrrole-2-carbonyl)piperidin-4-yl)methyl)sulfonyl)-1H-indole-2-carboxamide]",0.301 to 0.5
3,"CC(=O)N1CCN(c2ccc(OCc3nn(C)c(C)c3-c3cccc4c(CCCOc5cc(C)c(Cl)c(C)c5)c(C(=O)NS(C)(=O)=O)n(Cc5cccnc5)c34)cc2)CC1 [Example 125, 7-(3-((4-(4-acetylpiperazin-1-yl)phenoxy)methyl)-1,5-dimethyl-1H-pyrazol-4-yl)-3-(3-(4-chloro-3,5-dimethylphenoxy)propyl)-N-(methylsulfonyl)-1-(pyridin-3-ylmethyl)-1H-indole-2-carboxamide]",0.101 to 0.299
4,"CS(=O)(=O)NC(=O)c1[nH]c2ccccc2c1CCCOc1ccc(Br)cc1 [Example 36, 3-(3-(4-bromophenoxy)propyl)-N-(methylsulfonyl)-1H-indole-2-carboxamide]",10 to 50
5,"Cc1cc(OCCCc2c(C(=O)NS(C)(=O)=O)[nH]c3cc(Cl)ccc23)cc(C)c1Cl [Example 54, 6-chloro-3-(3-(4-chloro-3,5-dimethylphenoxy)propyl)-N-(methylsulfonyl)-1H-indole-2-carboxamide]",0.101 to 0.299
6,"Cc1cc(OCCCc2c(C(=O)NS(=O)(=O)CCNC(=O)c3cnco3)[nH]c3ccccc23)cc(C)c1Cl [Example 188, N-(2-(N-(3-(3-(4-chloro-3,5-dimethylphenoxy)propyl)-1H-indole-2-carbonyl)sulfamoyl)ethyl)oxazole-5-carboxamide]",1 to 9.99
7,"CS(=O)(=O)NC(=O)c1[nH]c2ccccc2c1CCCOc1ccc(C(F)(F)F)cc1 [Example 34, N-(methylsulfonyl)-3-(3-(4-(trifluoromethyl)phenoxy)propyl)-1H-indole-2-carboxamide]",10 to 50
8,"CS(=O)(=O)NC(=O)c1[nH]c2ccccc2c1CCCOc1cccc2c1CCCC2 [Example 46, N-(methylsulfonyl)-3-(3-((5,6,7,8-tetrahydronaphthalen-1-yl)oxy)propyl)-1H-indole-2-carboxamide]",1 to 9.99
9,"Cc1cc(OCCCc2c(C(=O)NS(=O)(=O)c3ccc(C(=O)NC4CCOCC4)o3)[nH]c3cc(Cl)ccc23)cc(C)c1Cl [Example 263, 6-chloro-3-(3-(4-chloro-3,5-dimethylphenoxy)propyl)-N-((5-((tetrahydro-2H-pyran-4-yl)carbamoyl)furan-2-yl)sulfonyl)-1H-indole-2-carboxamide]",0.101 to 0.299
10,"Cc1cc(OCCCc2c(C(=O)NS(=O)(=O)C3CCN(C(=O)c4cccn4Cc4ccccc4)CC3)[nH]c3cc(Cl)ccc23)cc(C)c1Cl [Example 215, N-((1-(1-benzyl-1H-pyrrole-2-carbonyl)piperidin-4-yl)sulfonyl)-6-chloro-3-(3-(4-chloro-3,5-dimethylphenoxy)propyl)-1H-indole-2-carboxamide]",0.301 to 0.5
11,"Cc1ccccc1-c1cccc2c(CCCOc3cccc4ccccc34)c(C(=O)O)sc12 [Example 10, 3-(3-(naphthalen-1-yloxy)propyl)-7-(o-tolyl)benzo[b]thiophene-2-carboxylic acid]",0.101 to 0.299
12,"Cc1cc(OCCCc2c(C(=O)NS(C)(=O)=O)[nH]c3cc(C(F)(F)F)ccc23)ccc1Cl [Example 77, 3-(3-(4-chloro-3-methylphenoxy)propyl)-N-(methylsulfonyl)-6-(trifluoromethyl)-1H-indole-2-carboxamide]",0.301 to 0.5
13,"Cc1cc(OCCCc2c(C(=O)NS(C)(=O)=O)sc3cc(Cl)ccc23)cc(C)c1Cl [Example 72, 6-chloro-3-(3-(4-chloro-3,5-dimethylphenoxy)propyl)-N-(methylsulfonyl)benzo[b]thiophene-2-carboxamide]",1 to 9.99
